Calls of active or inactive are those of the source. Cut-off read from the data, not from the text of the source, for most assays here: actives have a measured Kd and inactives only a lower limit.
Columns and labels:
[1] = molecular target: T1, Non-receptor tyrosine-protein kinase TNK1 (Homo sapiens, UniProt Q13470)
T1 sequence (Q13470 whole entry): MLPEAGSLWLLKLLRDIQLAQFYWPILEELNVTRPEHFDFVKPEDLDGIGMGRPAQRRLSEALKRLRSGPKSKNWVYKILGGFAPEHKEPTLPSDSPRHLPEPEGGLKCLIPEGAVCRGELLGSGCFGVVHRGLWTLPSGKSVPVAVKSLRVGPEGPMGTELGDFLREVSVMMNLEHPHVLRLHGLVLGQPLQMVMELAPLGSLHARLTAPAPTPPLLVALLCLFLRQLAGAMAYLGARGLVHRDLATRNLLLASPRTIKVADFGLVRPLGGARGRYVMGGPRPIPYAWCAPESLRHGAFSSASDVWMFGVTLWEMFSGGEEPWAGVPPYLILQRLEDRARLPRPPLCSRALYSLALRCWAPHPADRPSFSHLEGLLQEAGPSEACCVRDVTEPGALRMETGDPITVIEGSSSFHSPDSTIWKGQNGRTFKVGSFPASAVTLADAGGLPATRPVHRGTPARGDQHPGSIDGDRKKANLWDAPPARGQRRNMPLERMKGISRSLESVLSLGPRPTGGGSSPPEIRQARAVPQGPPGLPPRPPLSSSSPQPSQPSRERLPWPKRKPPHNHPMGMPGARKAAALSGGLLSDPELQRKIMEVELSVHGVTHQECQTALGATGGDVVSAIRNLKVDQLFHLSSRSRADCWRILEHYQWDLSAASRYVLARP

[2] = molecular target: Protein kinase C delta type (Homo sapiens, UniProt Q05655)
[3] = molecular target: T2, Calcium/calmodulin-dependent protein kinase type IV (Homo sapiens, UniProt Q16566)
T2 sequence (Q16566 whole entry): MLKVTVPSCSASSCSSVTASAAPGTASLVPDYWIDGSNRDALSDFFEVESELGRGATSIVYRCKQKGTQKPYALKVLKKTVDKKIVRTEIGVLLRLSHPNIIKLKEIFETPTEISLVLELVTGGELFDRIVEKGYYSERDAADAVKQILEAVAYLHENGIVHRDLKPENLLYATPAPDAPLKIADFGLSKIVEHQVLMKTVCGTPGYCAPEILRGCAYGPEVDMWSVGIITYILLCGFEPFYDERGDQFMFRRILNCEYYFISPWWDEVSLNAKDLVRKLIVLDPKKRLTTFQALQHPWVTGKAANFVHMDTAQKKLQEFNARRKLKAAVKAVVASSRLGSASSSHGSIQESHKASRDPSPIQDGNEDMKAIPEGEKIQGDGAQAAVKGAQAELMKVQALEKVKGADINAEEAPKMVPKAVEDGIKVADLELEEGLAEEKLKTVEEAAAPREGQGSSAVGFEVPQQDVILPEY

[4] = molecular target: Serine/threonine-protein kinase 26 (Homo sapiens, UniProt Q9P289)
[5] = molecular target: T3, Membrane-associated tyrosine- and threonine-specific cdc2-inhibitory kinase (Homo sapiens, UniProt Q99640)
T3 sequence (Q99640 whole entry): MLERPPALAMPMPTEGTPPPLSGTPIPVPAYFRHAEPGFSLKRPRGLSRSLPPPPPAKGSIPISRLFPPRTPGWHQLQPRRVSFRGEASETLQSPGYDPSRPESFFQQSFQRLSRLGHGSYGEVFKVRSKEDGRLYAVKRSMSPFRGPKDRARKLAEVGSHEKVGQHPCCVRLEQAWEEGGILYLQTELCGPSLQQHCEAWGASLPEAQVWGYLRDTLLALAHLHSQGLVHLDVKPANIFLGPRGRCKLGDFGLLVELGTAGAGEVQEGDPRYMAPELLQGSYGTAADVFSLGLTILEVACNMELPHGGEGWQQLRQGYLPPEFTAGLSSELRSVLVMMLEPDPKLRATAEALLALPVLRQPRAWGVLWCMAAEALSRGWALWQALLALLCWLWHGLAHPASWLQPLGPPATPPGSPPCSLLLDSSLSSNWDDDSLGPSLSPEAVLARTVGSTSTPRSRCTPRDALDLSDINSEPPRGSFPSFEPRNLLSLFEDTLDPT

[6] = molecular target: T4, Beta-adrenergic receptor kinase 1 (Homo sapiens, UniProt P25098)
T4 sequence (P25098 whole entry): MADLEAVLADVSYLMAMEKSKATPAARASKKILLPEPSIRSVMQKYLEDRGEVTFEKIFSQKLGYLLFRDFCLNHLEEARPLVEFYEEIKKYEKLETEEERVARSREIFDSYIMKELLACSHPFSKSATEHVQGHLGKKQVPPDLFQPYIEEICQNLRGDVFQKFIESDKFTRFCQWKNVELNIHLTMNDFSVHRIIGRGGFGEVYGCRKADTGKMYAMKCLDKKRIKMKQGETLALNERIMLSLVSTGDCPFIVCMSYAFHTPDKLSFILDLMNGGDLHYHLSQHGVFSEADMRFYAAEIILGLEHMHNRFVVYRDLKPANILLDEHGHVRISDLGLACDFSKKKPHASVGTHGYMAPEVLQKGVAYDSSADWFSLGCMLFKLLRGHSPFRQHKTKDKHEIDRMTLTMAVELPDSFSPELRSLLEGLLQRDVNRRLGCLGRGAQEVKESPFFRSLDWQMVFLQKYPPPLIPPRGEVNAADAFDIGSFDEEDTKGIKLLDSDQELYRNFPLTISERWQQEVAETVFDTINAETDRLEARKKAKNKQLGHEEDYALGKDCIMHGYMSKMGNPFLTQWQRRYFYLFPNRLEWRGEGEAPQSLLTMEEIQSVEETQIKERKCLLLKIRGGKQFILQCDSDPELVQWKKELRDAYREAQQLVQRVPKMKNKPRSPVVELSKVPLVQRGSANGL

[7] = molecular target: Ribosomal protein S6 kinase alpha-3 (Homo sapiens, UniProt P51812)
Note: in the data inactive means no Kd found up to 30 µM.

Serine/threonine-protein kinase 26, sequence (Q9P289 whole entry): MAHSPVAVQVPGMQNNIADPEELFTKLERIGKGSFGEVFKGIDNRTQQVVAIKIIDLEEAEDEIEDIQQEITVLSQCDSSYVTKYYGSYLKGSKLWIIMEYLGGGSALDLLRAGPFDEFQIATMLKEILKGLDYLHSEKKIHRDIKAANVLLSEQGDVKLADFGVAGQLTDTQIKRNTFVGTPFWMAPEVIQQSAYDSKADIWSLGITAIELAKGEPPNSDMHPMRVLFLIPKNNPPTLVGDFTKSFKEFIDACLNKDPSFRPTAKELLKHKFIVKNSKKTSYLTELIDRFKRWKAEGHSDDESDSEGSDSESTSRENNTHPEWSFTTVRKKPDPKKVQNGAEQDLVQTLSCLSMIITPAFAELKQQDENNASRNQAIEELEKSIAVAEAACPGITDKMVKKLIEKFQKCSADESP
Protein kinase C delta type, sequence (Q05655 whole entry): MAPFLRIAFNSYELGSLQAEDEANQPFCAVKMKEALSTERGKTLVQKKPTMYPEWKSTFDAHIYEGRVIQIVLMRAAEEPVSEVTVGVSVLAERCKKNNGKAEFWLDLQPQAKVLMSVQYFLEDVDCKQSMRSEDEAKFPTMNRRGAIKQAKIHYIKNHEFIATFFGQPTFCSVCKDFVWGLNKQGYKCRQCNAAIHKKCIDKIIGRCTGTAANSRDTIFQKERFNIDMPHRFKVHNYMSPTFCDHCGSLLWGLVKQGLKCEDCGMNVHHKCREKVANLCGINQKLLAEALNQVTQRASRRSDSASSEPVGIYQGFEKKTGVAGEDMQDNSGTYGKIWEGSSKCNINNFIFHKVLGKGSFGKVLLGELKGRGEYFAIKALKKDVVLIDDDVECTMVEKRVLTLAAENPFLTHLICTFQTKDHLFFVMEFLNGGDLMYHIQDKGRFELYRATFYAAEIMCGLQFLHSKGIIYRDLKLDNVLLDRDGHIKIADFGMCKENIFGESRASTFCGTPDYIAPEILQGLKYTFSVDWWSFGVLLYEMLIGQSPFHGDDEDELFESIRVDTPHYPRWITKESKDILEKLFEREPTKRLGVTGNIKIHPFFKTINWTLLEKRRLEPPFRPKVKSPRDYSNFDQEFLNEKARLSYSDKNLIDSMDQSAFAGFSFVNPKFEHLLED
Ribosomal protein S6 kinase alpha-3, sequence (P51812 whole entry): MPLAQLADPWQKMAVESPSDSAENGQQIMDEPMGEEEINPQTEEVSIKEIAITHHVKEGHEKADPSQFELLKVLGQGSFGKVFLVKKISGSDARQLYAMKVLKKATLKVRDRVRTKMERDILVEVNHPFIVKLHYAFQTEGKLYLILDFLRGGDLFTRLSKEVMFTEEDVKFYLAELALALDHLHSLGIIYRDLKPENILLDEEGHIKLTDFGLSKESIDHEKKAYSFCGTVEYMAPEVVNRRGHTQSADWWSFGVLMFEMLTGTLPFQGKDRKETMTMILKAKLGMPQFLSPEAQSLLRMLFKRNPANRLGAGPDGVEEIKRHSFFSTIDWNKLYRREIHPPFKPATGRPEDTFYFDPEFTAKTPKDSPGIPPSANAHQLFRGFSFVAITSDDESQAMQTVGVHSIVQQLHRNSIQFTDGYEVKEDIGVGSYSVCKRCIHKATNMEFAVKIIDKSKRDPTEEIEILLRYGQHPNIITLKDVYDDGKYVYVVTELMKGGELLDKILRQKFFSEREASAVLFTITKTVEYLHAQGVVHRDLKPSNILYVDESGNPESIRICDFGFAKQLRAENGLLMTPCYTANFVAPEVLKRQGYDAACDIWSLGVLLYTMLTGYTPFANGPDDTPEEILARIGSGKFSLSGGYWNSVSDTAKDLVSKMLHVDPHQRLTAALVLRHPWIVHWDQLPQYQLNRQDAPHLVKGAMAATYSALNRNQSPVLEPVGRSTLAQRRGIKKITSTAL

Structure (SMILES) | Kd [1] | Kd [2] | Kd [3] | Kd [4] | Kd [5] | Kd [6] | Kd [7]
CC(=O)c1cnc2ccc(-c3cc(Cl)c(O)c(Cl)c3)nc2c1N[C@H]1CC[C@H](CN(C)C)CC1 | 1.78 µM (active) |  | > 30 µM (inactive) | > 30 µM (inactive) | > 30 µM (inactive) | > 30 µM (inactive) | 
CCNC(=O)C#Cc1ccc2c(c1)NC(=O)/C2=C(\Nc1ccc(CN(C)C)cc1)c1ccccc1 | > 30 µM (inactive) | > 30 µM (inactive) | > 30 µM (inactive) | > 30 µM (inactive) | > 30 µM (inactive) | > 30 µM (inactive) | 0.734 µM (active)
C=CC(=O)N1CCC[C@H](n2c(=O)n(-c3ccc(Oc4ccccc4)cc3)c3c(N)ncnc32)C1 | > 30 µM (inactive) | > 30 µM (inactive) | > 30 µM (inactive) | > 30 µM (inactive) | > 30 µM (inactive) | > 30 µM (inactive) | > 30 µM (inactive)
Cc1nc2cc(-c3nn(C(C)C)c4ncnc(N)c34)ccc2o1 | > 30 µM (inactive) | > 30 µM (inactive) | 5.96 µM (active) | 2.19 µM (active) | > 30 µM (inactive) | > 30 µM (inactive) | > 30 µM (inactive)
COCc1c(-c2ccc(NC(=O)Nc3cc(C(F)(F)F)ccc3F)c(F)c2)c2c(N)ncnn2c1CN1CCOCC1 | 1.26 µM (active) | 5.08 µM (active) | > 30 µM (inactive) | > 30 µM (inactive) | > 30 µM (inactive) | > 30 µM (inactive) | 5.31 µM (active)
Cc1nc(NC(=O)N2CCC[C@H]2C(N)=O)sc1-c1ccnc(C(C)(C)C(F)(F)F)c1 [ALPELISIB] | > 30 µM (inactive) | > 30 µM (inactive) |  | > 30 µM (inactive) | > 30 µM (inactive) | > 30 µM (inactive) | > 30 µM (inactive)
C=CC(=O)Nc1cc2c(Nc3ccc(F)c(Cl)c3)ncnc2cc1C#CC(C)(C)N1CCN(C)CC1 [AV-412 FREE BASE] | > 30 µM (inactive) | > 30 µM (inactive) |  | > 30 µM (inactive) | > 30 µM (inactive) | > 30 µM (inactive) | > 30 µM (inactive)
CNC(=O)c1ccccc1Sc1ccc2c(/C=C/c3ccccn3)n[nH]c2c1 [AXITINIB] |  |  |  |  |  | > 30 µM (inactive) | 
CC(C)(C)c1nc(-c2cccc(NS(=O)(=O)c3c(F)cccc3F)c2F)c(-c2ccnc(N)n2)s1 [DABRAFENIB] | 0.066 µM (active) | > 30 µM (inactive) |  | > 30 µM (inactive) | > 30 µM (inactive) | > 30 µM (inactive) | 
Cn1cc(C2=C(c3cn(C4CCN(Cc5ccccn5)CC4)c4ccccc34)C(=O)NC2=O)c2ccccc21 [ENZASTAURIN] |  |  |  |  |  | > 30 µM (inactive) | 
O=C(Nc1cc(C(F)(F)F)cc(C(F)(F)F)c1)c1cc(Cl)ccc1O [IMD-0354] | > 30 µM (inactive) |  | > 30 µM (inactive) | > 30 µM (inactive) | > 30 µM (inactive) | > 30 µM (inactive) | > 30 µM (inactive)
NC(=O)c1c(OCc2c(F)cc(Br)cc2F)nsc1NC(=O)NCCCCN1CCCC1 [OSI-632] | > 30 µM (inactive) |  | > 30 µM (inactive) | > 30 µM (inactive) | > 30 µM (inactive) | > 30 µM (inactive) | 
CCOc1cc2ncc(C#N)c(Nc3ccc(F)c(Cl)c3)c2cc1NC(=O)/C=C/CN(C)C [PELITINIB] | > 30 µM (inactive) |  | > 30 µM (inactive) | > 30 µM (inactive) | > 30 µM (inactive) | > 30 µM (inactive) | > 30 µM (inactive)
CC(=O)NCC(=O)N1[C@@H]2CC[C@H]1c1ccc(Nc3ncc(C(F)(F)F)c(NC4CCC4)n3)cc12 [PF-03814735] | 0.369 µM (active) |  | > 30 µM (inactive) | > 30 µM (inactive) | > 30 µM (inactive) | > 30 µM (inactive) | 
N#CC[C@H](C1CCCC1)n1cc(-c2ncnc3[nH]ccc23)cn1 [RUXOLITINIB] |  |  |  |  |  | > 30 µM (inactive) | 
CN1CCN(CCOc2cc(OC3CCOCC3)c3c(Nc4c(Cl)ccc5c4OCO5)ncnc3c2)CC1 [SARACATINIB] | > 30 µM (inactive) | > 30 µM (inactive) | > 30 µM (inactive) | > 30 µM (inactive) |  | > 30 µM (inactive) | > 30 µM (inactive)
Cn1ncc(Cl)c1-c1cc(C(=O)N[C@H](CN)Cc2ccc(F)c(F)c2)oc1Cl [UPROSERTIB] | > 30 µM (inactive) | > 30 µM (inactive) |  |  | > 30 µM (inactive) | > 30 µM (inactive) | > 30 µM (inactive)

Further lines, results first:

Kd [1] | Kd [2] | Kd [3] | Kd [4] | Kd [5] | Kd [6] | Kd [7] | Structure (SMILES)
> 30 µM (inactive) | > 30 µM (inactive) | > 30 µM (inactive) | > 30 µM (inactive) | > 30 µM (inactive) | > 30 µM (inactive) | > 30 µM (inactive) | C[C@@H](Oc1cc(C(=O)Nc2ccc(C(=O)N3CCN(C)CC3)cc2)nnc1N)c1c(Cl)ccc(F)c1Cl
> 30 µM (inactive) | 2.47 µM (active) | > 30 µM (inactive) | > 30 µM (inactive) | > 30 µM (inactive) | > 30 µM (inactive) | > 30 µM (inactive) | C[C@H]1CNCCCN1S(=O)(=O)c1cccc2cncc(F)c12
 |  | > 30 µM (inactive) | > 30 µM (inactive) | > 30 µM (inactive) | > 30 µM (inactive) |  | COc1cc(Nc2ncc3c(n2)-c2ccc(Cl)cc2C(c2c(F)cccc2OC)=NC3)ccc1C(=O)O [ALISERTIB]
 | > 30 µM (inactive) | > 30 µM (inactive) | > 30 µM (inactive) | > 30 µM (inactive) | > 30 µM (inactive) |  | O=C(Nc1c[nH]nc1-c1nc2cc(CN3CCOCC3)ccc2[nH]1)NC1CC1 [AT-9283]
> 30 µM (inactive) | > 30 µM (inactive) |  | > 30 µM (inactive) | > 30 µM (inactive) | > 30 µM (inactive) | > 30 µM (inactive) | Cc1nc2cc(-n3ncc(C(=O)c4cc5ccccc5[nH]4)c3N)ccc2[nH]1 [FGFR INHIBITOR DEBIO 1347]
 |  |  |  |  | > 30 µM (inactive) |  | C[C@@H](Oc1cc(-n2cnc3ccc(CN4CCN(C)CC4)cc32)sc1C(N)=O)c1ccccc1C(F)(F)F [GSK-461364]
 | > 30 µM (inactive) | > 30 µM (inactive) | > 30 µM (inactive) | > 30 µM (inactive) |  |  | CCn1cc(-c2ccnc3[nH]c(-c4cccc(CN(C)C)c4)cc23)c(-c2ccc(NC(=O)N(C)C)cc2)n1 [GSK-1070916]
 |  | > 30 µM (inactive) | > 30 µM (inactive) | > 30 µM (inactive) | > 30 µM (inactive) |  | Cc1[nH]c(/C=C2\C(=O)Nc3ccccc32)c(C)c1CCC(=O)O [ORANTINIB]

From ChEMBL document CHEMBL3991601, “The target landscape of clinical kinase drugs” (Science, 2017)
